In brackets after ≈: the same amount, converted by molar mass. Like-named read-outs stand apart in the source and are kept apart here. A value given as a limit tells only on which side of the number the result lay.

Series [1] deals with MRSA ATCC BAA 1556 (USA300). The series can be described thus: In-house broth microdilution MIC screening. The conditions noted are these: for MIC: Staphylococcus aureus, read-out: MIC Value, MRSA ATCC BAA 1556. It is filed as cell-based, Staphylococcus aureus.
The subject of a further series is MSSA ATCC 29213. The experiment in a line: In-house broth microdilution MIC screening. To be noted: Staphylococcus aureus, read-out: MIC Value, MSSA ATCC 29213. It is filed as cell-based.
Series [2] in a line: Single-dose nebulized nose-only inhalation PK in healthy rats. The series is classed as in vivo, rat. The conditions noted are these: male, Sprague Dawley, rat, in vivo. As for the experimental part:
Rats were acclimated in the study facility for approximately 1 week prior to study start. Ten or eleven rats per cohort were loaded into the chamber at the time of dosing. […] An additional airflow set to 6 liters/min was admixed with the nebulizer output to further direct the test articles to the animals. […] The remaining port on the chamber was fit with an aerosol sampling filter for dose determination over a 5 min sampling period. The average dose delivered to the nose of each animal was calculated using an algorithm that was previously described ([49]). […] Animals were euthanized for collection of whole lungs and plasma at time points ranging from immediate postdose (IPD; approximately 30 min after dosing for nebulization) to 168 h postdose (7 days). Drugs were extracted from tissues using customized protein precipitation methods with an appropriate internal standard for each compound and transferred for analysis by LC-MS/MS (Sciex API4500 or API6500+ mass spectrometer [Sciex, Framingham, MA]). GraphPad Prism (La Jolla, CA) was used for statistical analyses and data plotting. […] The data were applied to a noncompartmental analysis after extravascular dosing input and fit to a linear up/log down model. Statistical analysis of in vitro intracellular and biofilm activity was based on a two-way ANOVA with a Bonferroni post test. In vivo statistical analysis was based on the Kolmogorov-Smirnov test.

Where [3] appears, read: MRSA and MSSA isolates of Table 1.

For the compound `CCCCCCCCCC(=O)OCCNC1(C)CC(OC2C(Oc3c4cc5cc3Oc3ccc(cc3Cl)C(O)C3NC(=O)C(NC(=O)C5NC(=O)C(CC(N)=O)NC(=O)C(NC(=O)C(CC(C)C)NC)C(O)c5ccc(c(Cl)c5)O4)c4ccc(O)c(c4)-c4c(O)cc(O)cc4C(C(=O)O)NC3=O)OC(CO)C(O)C2O)OC(C)C1O` (stereo not drawn) [RV54], the results for the MIC (in series [1] (broth microdilution); with MSSA ATCC 29213 (broth microdilution)) were 0.167 µg/mL (≈ 0.101 µM) and 0.146 µg/mL (≈ 0.0886 µM), respectively.

Take `CCCCCCCCCCOC(=O)CNC1(C)CC(OC2C(Oc3c4cc5cc3Oc3ccc(cc3Cl)C(O)C3NC(=O)C(NC(=O)C5NC(=O)C(CC(N)=O)NC(=O)C(NC(=O)C(CC(C)C)NC)C(O)c5ccc(c(Cl)c5)O4)c4ccc(O)c(c4)-c4c(O)cc(O)cc4C(C(=O)O)NC3=O)OC(CO)C(O)C2O)OC(C)C1O` (stereo not drawn) [RV55]: the MIC (in series [1] (broth microdilution); in the series with MSSA ATCC 29213 (broth microdilution)) was 0.25 µg/mL (≈ 0.152 µM) each time.

In the case of `CCCCCCCCCC(=O)NCCNC1(C)CC(OC2C(Oc3c4cc5cc3Oc3ccc(cc3Cl)C(O)C3NC(=O)C(NC(=O)C5NC(=O)C(CC(N)=O)NC(=O)C(NC(=O)C(CC(C)C)NC)C(O)c5ccc(c(Cl)c5)O4)c4ccc(O)c(c4)-c4c(O)cc(O)cc4C(C(=O)O)NC3=O)OC(CO)C(O)C2O)OC(C)C1O` (stereo not drawn) [RV56], the MIC (in series [1] (broth microdilution); in the series with MSSA ATCC 29213 (broth microdilution)) was 0.063 µg/mL (≈ 0.0383 µM) throughout.

As to `CCCCCCCCCCCC(=O)OCCNC1(C)CC(OC2C(Oc3c4cc5cc3Oc3ccc(cc3Cl)C(O)C3NC(=O)C(NC(=O)C5NC(=O)C(CC(N)=O)NC(=O)C(NC(=O)C(CC(C)C)NC)C(O)c5ccc(c(Cl)c5)O4)c4ccc(O)c(c4)-c4c(O)cc(O)cc4C(C(=O)O)NC3=O)OC(CO)C(O)C2O)OC(C)C1O` (stereo not drawn) [RV65], the figures for the MIC (in series [1] (broth microdilution); in the series on MSSA ATCC 29213 (broth microdilution)) were 0.094 µg/mL (≈ 0.0561 µM) and 0.063 µg/mL (≈ 0.0376 µM), respectively.

Turning to `CNC(CC(C)C)C(=O)NC1C(=O)NC(CC(N)=O)C(=O)NC2C(=O)NC3C(=O)NC(C(=O)NC(C(=O)O)c4cc(O)cc(O)c4-c4cc3ccc4O)C(O)c3ccc(c(Cl)c3)Oc3cc2cc(c3OC2OC(CO)C(O)C(O)C2OC2CC(C)(NCCO)C(O)C(C)O2)Oc2ccc(cc2Cl)C1O` (stereo not drawn) [RV80], the MIC came out at 2 µg/mL (≈ 1.34 µM) in series [1] (broth microdilution) and 1.5 µg/mL (≈ 1 µM) in the series on MSSA ATCC 29213 (broth microdilution). Also, the “Lung retention of primary hydrolysis by-product” value in series [2] is “sustained in the lung throughout the course of the 120 h experiments”.

For the compound `CNC(CC(C)C)C(=O)NC1C(=O)NC(CC(N)=O)C(=O)NC2C(=O)NC3C(=O)NC(C(=O)NC(C(=O)O)c4cc(O)cc(O)c4-c4cc3ccc4O)C(O)c3ccc(c(Cl)c3)Oc3cc2cc(c3OC2OC(CO)C(O)C(O)C2OC2CC(C)(NCCN)C(O)C(C)O2)Oc2ccc(cc2Cl)C1O` (stereo not drawn) [RV82], the MIC (in series [1] (broth microdilution); in the series with MSSA ATCC 29213 (broth microdilution)) was 2 µg/mL (≈ 1.34 µM) in each case. In addition, the “Lung retention of primary hydrolysis by-product” value in series [2] is “sustained in the lung throughout the course of the 120 h experiments”.

Take `CCCCCCCCCCCCCCCC(=O)OCCNC1(C)CC(OC2C(Oc3c4cc5cc3Oc3ccc(cc3Cl)C(O)C3NC(=O)C(NC(=O)C5NC(=O)C(CC(N)=O)NC(=O)C(NC(=O)C(CC(C)C)NC)C(O)c5ccc(c(Cl)c5)O4)c4ccc(O)c(c4)-c4c(O)cc(O)cc4C(C(=O)O)NC3=O)OC(CO)C(O)C2O)OC(C)C1O` (stereo not drawn) [RV89]: the MIC in series [1] (broth microdilution) was 1 µg/mL (≈ 0.577 µM); with MSSA ATCC 29213 (broth microdilution), 0.5 µg/mL (≈ 0.289 µM).

In the case of `CCCCCCCC(=O)OCCNC1(C)CC(OC2C(Oc3c4cc5cc3Oc3ccc(cc3Cl)C(O)C3NC(=O)C(NC(=O)C5NC(=O)C(CC(N)=O)NC(=O)C(NC(=O)C(CC(C)C)NC)C(O)c5ccc(c(Cl)c5)O4)c4ccc(O)c(c4)-c4c(O)cc(O)cc4C(C(=O)O)NC3=O)OC(CO)C(O)C2O)OC(C)C1O` (stereo not drawn) [RV90], the MIC (in series [1]; in the series on MSSA ATCC 29213) was 0.25 µg/mL (≈ 0.154 µM) in each case.

Consider `CCCCCCCCCCCCCCCC(=O)NCCNC1(C)CC(OC2C(Oc3c4cc5cc3Oc3ccc(cc3Cl)C(O)C3NC(=O)C(NC(=O)C5NC(=O)C(CC(N)=O)NC(=O)C(NC(=O)C(CC(C)C)NC)C(O)c5ccc(c(Cl)c5)O4)c4ccc(O)c(c4)-c4c(O)cc(O)cc4C(C(=O)O)NC3=O)OC(CO)C(O)C2O)OC(C)C1O` (stereo not drawn) [RV91], for which the MIC in series [1] (broth microdilution) amounted to 0.25 µg/mL (≈ 0.144 µM); in the series on MSSA ATCC 29213 (broth microdilution) it was 0.188 µg/mL (≈ 0.109 µM).

In the case of `CCCCCCCCCCCCCC(=O)NCCNC1(C)CC(OC2C(Oc3c4cc5cc3Oc3ccc(cc3Cl)C(O)C3NC(=O)C(NC(=O)C5NC(=O)C(CC(N)=O)NC(=O)C(NC(=O)C(CC(C)C)NC)C(O)c5ccc(c(Cl)c5)O4)c4ccc(O)c(c4)-c4c(O)cc(O)cc4C(C(=O)O)NC3=O)OC(CO)C(O)C2O)OC(C)C1O` (stereo not drawn) [RV92], the MIC in series [1] (broth microdilution) was found to be 0.031 µg/mL (≈ 0.0182 µM); in the series with MSSA ATCC 29213 (broth microdilution), 0.023 µg/mL (≈ 0.0135 µM).

In the case of `CCCCCCCC(=O)NCCNC1(C)CC(OC2C(Oc3c4cc5cc3Oc3ccc(cc3Cl)C(O)C3NC(=O)C(NC(=O)C5NC(=O)C(CC(N)=O)NC(=O)C(NC(=O)C(CC(C)C)NC)C(O)c5ccc(c(Cl)c5)O4)c4ccc(O)c(c4)-c4c(O)cc(O)cc4C(C(=O)O)NC3=O)OC(CO)C(O)C2O)OC(C)C1O` (stereo not drawn) [RV93], the MIC (in series [1] (broth microdilution); with MSSA ATCC 29213 (broth microdilution)) was 0.125 µg/mL (≈ 0.0772 µM) each time.

As to `CCCCCCCCCCCCNC(=O)CNC1(C)CC(OC2C(Oc3c4cc5cc3Oc3ccc(cc3Cl)C(O)C3NC(=O)C(NC(=O)C5NC(=O)C(CC(N)=O)NC(=O)C(NC(=O)C(CC(C)C)NC)C(O)c5ccc(c(Cl)c5)O4)c4ccc(O)c(c4)-c4c(O)cc(O)cc4C(C(=O)O)NC3=O)OC(CO)C(O)C2O)OC(C)C1O` (stereo not drawn) [RV95], in series [1] (setting [3]), the “MIC potency, fold less potent than RV40” value was approximately 2 fold; the “MIC potency, fold more potent than telavancin” value was approximately 2 fold; the “MIC potency, fold more potent than vancomycin” value was “approximately 30 fold”. Besides, in series [1] (broth microdilution), the MIC amounted to 0.031 µg/mL (≈ 0.0185 µM). In addition, the MIC in the series with MSSA ATCC 29213 (broth microdilution) was 0.031 µg/mL (≈ 0.0185 µM).

As for `CNC(CC(C)C)C(=O)NC1C(=O)NC(CC(N)=O)C(=O)NC2C(=O)NC3C(=O)NC(C(=O)NC(C(=O)O)c4cc(O)cc(O)c4-c4cc3ccc4O)C(O)c3ccc(c(Cl)c3)Oc3cc2cc(c3OC2OC(CO)C(O)C(O)C2OC2CC(C)(NCC(=O)O)C(O)C(C)O2)Oc2ccc(cc2Cl)C1O` (stereo not drawn) [RV101], the MIC (in series [1] (broth microdilution); in the series on MSSA ATCC 29213 (broth microdilution)) was more than 128 µg/mL throughout.

As for `CCCCCCCCNC(=O)CNC1(C)CC(OC2C(Oc3c4cc5cc3Oc3ccc(cc3Cl)C(O)C3NC(=O)C(NC(=O)C5NC(=O)C(CC(N)=O)NC(=O)C(NC(=O)C(CC(C)C)NC)C(O)c5ccc(c(Cl)c5)O4)c4ccc(O)c(c4)-c4c(O)cc(O)cc4C(C(=O)O)NC3=O)OC(CO)C(O)C2O)OC(C)C1O` (stereo not drawn) [RV121], the MIC (in series [1] (broth microdilution); with MSSA ATCC 29213 (broth microdilution)) was 0.25 µg/mL (≈ 0.154 µM) throughout.

As for `CCCCCCCCOC(=O)CNC1(C)CC(OC2C(Oc3c4cc5cc3Oc3ccc(cc3Cl)C(O)C3NC(=O)C(NC(=O)C5NC(=O)C(CC(N)=O)NC(=O)C(NC(=O)C(CC(C)C)NC)C(O)c5ccc(c(Cl)c5)O4)c4ccc(O)c(c4)-c4c(O)cc(O)cc4C(C(=O)O)NC3=O)OC(CO)C(O)C2O)OC(C)C1O` (stereo not drawn) [RV124], the MIC in series [1] (broth microdilution) came out at 0.75 µg/mL (≈ 0.463 µM); with MSSA ATCC 29213 (broth microdilution) it was 0.5 µg/mL (≈ 0.309 µM).

With `CCCCCCCCCCCCOC(=O)CNC1(C)CC(OC2C(Oc3c4cc5cc3Oc3ccc(cc3Cl)C(O)C3NC(=O)C(NC(=O)C5NC(=O)C(CC(N)=O)NC(=O)C(NC(=O)C(CC(C)C)NC)C(O)c5ccc(c(Cl)c5)O4)c4ccc(O)c(c4)-c4c(O)cc(O)cc4C(C(=O)O)NC3=O)OC(CO)C(O)C2O)OC(C)C1O` (stereo not drawn) [RV126], the MIC (in series [1] (broth microdilution); in the series on MSSA ATCC 29213 (broth microdilution)) was 2 µg/mL (≈ 1.19 µM) throughout.

`CCCCCCCCCCCCCCOC(=O)CNC1(C)CC(OC2C(Oc3c4cc5cc3Oc3ccc(cc3Cl)C(O)C3NC(=O)C(NC(=O)C5NC(=O)C(CC(N)=O)NC(=O)C(NC(=O)C(CC(C)C)NC)C(O)c5ccc(c(Cl)c5)O4)c4ccc(O)c(c4)-c4c(O)cc(O)cc4C(C(=O)O)NC3=O)OC(CO)C(O)C2O)OC(C)C1O` (stereo not drawn) [RV127]: the MIC (in series [1] (broth microdilution); with MSSA ATCC 29213 (broth microdilution)) was 4 µg/mL (≈ 2.35 µM) in each case.

As to `CCCCCCCCCCCCCCCCOC(=O)CNC1(C)CC(OC2C(Oc3c4cc5cc3Oc3ccc(cc3Cl)C(O)C3NC(=O)C(NC(=O)C5NC(=O)C(CC(N)=O)NC(=O)C(NC(=O)C(CC(C)C)NC)C(O)c5ccc(c(Cl)c5)O4)c4ccc(O)c(c4)-c4c(O)cc(O)cc4C(C(=O)O)NC3=O)OC(CO)C(O)C2O)OC(C)C1O` (stereo not drawn) [RV128], the MIC (in series [1] (broth microdilution); in the series with MSSA ATCC 29213 (broth microdilution)) was 1 µg/mL (≈ 0.577 µM) each time.

Regarding `CCCCCCCCCCCCCCNC(=O)CNC1(C)CC(OC2C(Oc3c4cc5cc3Oc3ccc(cc3Cl)C(O)C3NC(=O)C(NC(=O)C5NC(=O)C(CC(N)=O)NC(=O)C(NC(=O)C(CC(C)C)NC)C(O)c5ccc(c(Cl)c5)O4)c4ccc(O)c(c4)-c4c(O)cc(O)cc4C(C(=O)O)NC3=O)OC(CO)C(O)C2O)OC(C)C1O` (stereo not drawn) [RV130], the MIC in series [1] (broth microdilution) was determined as 0.25 µg/mL (≈ 0.147 µM); in the series with MSSA ATCC 29213 (broth microdilution), 0.125 µg/mL (≈ 0.0734 µM).

Regarding `CCCCCCCCCCCCCCCCNC(=O)CNC1(C)CC(OC2C(Oc3c4cc5cc3Oc3ccc(cc3Cl)C(O)C3NC(=O)C(NC(=O)C5NC(=O)C(CC(N)=O)NC(=O)C(NC(=O)C(CC(C)C)NC)C(O)c5ccc(c(Cl)c5)O4)c4ccc(O)c(c4)-c4c(O)cc(O)cc4C(C(=O)O)NC3=O)OC(CO)C(O)C2O)OC(C)C1O` (stereo not drawn) [RV131], the MIC (in series [1] (broth microdilution); with MSSA ATCC 29213 (broth microdilution)) was 4 µg/mL (≈ 2.31 µM) throughout.
